In patent publication US6537974B2, “Method of treating arrhythmias” (CV Therapeutics, Inc., priority 2000, dated 2003):

How the values were obtained:
[1] = in vivo; cited from earlier work
A1 adenosine receptor = molecular target: T1, A1 adenosine receptor (Homo sapiens, UniProt P30542); assay: Specificity for the A1 adenosine receptor: CPX antagonism, left ventricular pressure
T1 sequence (P30542 1-326): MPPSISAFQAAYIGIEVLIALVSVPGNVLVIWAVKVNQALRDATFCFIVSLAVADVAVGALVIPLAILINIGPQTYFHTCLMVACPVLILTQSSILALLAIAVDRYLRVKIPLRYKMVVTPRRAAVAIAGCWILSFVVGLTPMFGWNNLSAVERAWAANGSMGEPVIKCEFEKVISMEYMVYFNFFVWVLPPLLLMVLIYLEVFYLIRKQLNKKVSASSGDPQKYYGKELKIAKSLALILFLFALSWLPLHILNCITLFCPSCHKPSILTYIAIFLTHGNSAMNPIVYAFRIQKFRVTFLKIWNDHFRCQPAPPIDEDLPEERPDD

AV node (AH interval) = assay: Electrophysiology study: single intravenous bolus of CVT-510, effect on AH interval, heart rate, blood pressure; format: in vivo, human
Description: (§1) The effect of CVT-510 on prolongation of AH interval, a measure of an adenosine A1 mediated effect of CVT-510, and on the heart rate (sinus rate) of patients with PSVT was tested in patients undergoing a clinically indicated electrophysiology study. In the first study patients volunteers were administered a single bolus of. CVT-510. In the second study PSVT was induced in patients prior to the administration of CVT-510.
All antiarrhythmic agents, including digoxin, beta-blockers and calcium-channel blockers were discontinued for five half-lives prior to the study.
Patients were excluded from the study if the PR interval was >200 ms or resting heart rate was <60 or >100/min. Other exclusion criteria included evidence of ventricular preexcitation, Class II-IV congestive heart failure or asthma. Patients were also required to have normal baseline electrophysiologic parameters, including a paced AV nodal Wenckebach cycle length 500 ms, an AH interval between 60 and 125 ms and an HV interval 35-55 ms. All patients were 18 years of age.
Quadripolar catheters were introduced percutaneously and advanced under fluoroscopic guidance to the high right atrium and across the tricuspid annulus to record the His bundle potential. […] Data were stored on optical disk. All patients had continuous ECG and non-invasive blood pressure monitoring throughout the study.
Cardiac stimulation was performed with a programmable stimulator with an isolated constant-current source. Stimuli were delivered as rectangular pulses of 2 ms duration at four times diastolic threshold. The study design was open-label with dose escalation, with the latter determined by tolerability. A single intravenous bolus of CVT-510 was administered to each patient after baseline electrophysiologic measurements were made.
After a bolus dose of CVT-510 was given, blood pressure, heart rate, 12-lead ECG and AH and HV intervals were recorded at 1, 5, 10, 15, 20 and 30 min and then every 15 min for up to 1 hour post-bolus or until the parameters returned to baseline. The AH and HV intervals were determined by measuring the last interval during a 15 beat drive at a paced cycle length of 600, 500 and 400 ms (unless precluded by pacing-induced AV nodal Wenckebach).
Administration of CVT-510 started at a dose of 0.3 μg/kg. Dose escalation proceeded with additional groups of patients receiving doses of 1, 3, 7.5, 10, 15 and 30 μg/kg based on tolerability and the absence of AV nodal Wenckebach or 3° AV block during sinus rhythm.
Data are expressed as mean ±SD. Based on the results of the normality test, a paired t-test or a non-parametric signed-rank test (SR) was used to determine the significance of CVT-510's effects on heart rate, blood pressure, ECG and AV nodal conduction times (AH and HV) for each dosing group (e.g., 0.3, 1.0, 3.0, 7.5, 10.0, 15.0 and 30.0 μg/kg). Similarly, analysis of variance (ANOVA) or the Kruskal-Wallis test (KW) was used to compare the AH intervals during sinus rhythm and atrial pacing at all doses. No adjustment for multiple comparisons were made, and a P value <0.05 were used to determine the significance of the differences between mean values.

patients with PSVT = assay: Treatment of patients with induced PSVT with CVT-510 boluses: conversion to sinus rhythm; format: in vivo, human; details: for % conversion after Bolus 1 / % conversion after Bolus 2 / % cumulative conversion: patients with PSVT
Description: as §1

SMILES: C[C@H]1O[C@@H](O[C@H]2[C@@H](O)C[C@H](O[C@H]3[C@@H](O)C[C@H](O[C@H]4CC[C@@]5(C)[C@H](CC[C@@H]6[C@@H]5C[C@@H](O)[C@]5(C)[C@@H](C7=CC(=O)OC7)CC[C@]65O)C4)O[C@@H]3C)O[C@@H]2C)C[C@H](O)[C@@H]1O [Digoxin]
- delayed onset of action [1]: about 30 min
- time to peak effects after administration [1]: 3 to 4 h

SMILES: OC[C@H]1O[C@@H](n2cnc3c(N[C@@H]4CCOC4)ncnc32)[C@H](O)[C@@H]1O [CVT-510, 6-(3-(R)-aminotetrahydrofuranyl)purine riboside]
- effect on dpdt^−1 max (A1 adenosine receptor): no effect
- effect on left ventricular pressure (A1 adenosine receptor): no effect
- effects on the AV node in the presence of the selective A1 receptor antagonist CPX (A1 adenosine receptor; with CPX, effects on coronary conductance not abolished): completely abolished
- effect on AV nodal conduction (AV node (AH interval); bolus doses 0.3-30 μg/kg, patients): slows AV nodal conduction in a dose-dependent manner
- time of maximal effect on the AH interval after dosing (AV node (AH interval); dose of 7.5 μg/kg, human patients): one
- half-life compared with adenosine (AV node (AH interval); in vivo): relatively long
- effect on sinus rate (AV node (AH interval); patients): no effect
- effect on systemic blood pressure (AV node (AH interval); patients): no effect
- onset of action (AV node (AH interval); post-administration): ≤ 1 min
- time by which effects were mostly eliminated (AV node (AH interval); post-administration): ≤ 20 min
- % conversion after Bolus 1 (patients with PSVT; Dose Level 3 (n = 4)): 75%
- % conversion after Bolus 2 (patients with PSVT; Dose Level 3 (n = 4)): 25%
- % cumulative conversion (patients with PSVT; Dose Level 3 (n = 4)): 100%
- % conversion after Bolus 1 (patients with PSVT; Dose Level 5 (n = 9)): 78%
- % conversion after Bolus 2 (patients with PSVT; Dose Level 5 (n = 9)): 0%
- % cumulative conversion (patients with PSVT; Dose Level 5 (n = 9)): 78%
- % conversion after Bolus 1 (patients with PSVT; Dose Level 7.5 (n = 4)): 100%
- % conversion after Bolus 2 (patients with PSVT; Dose Level 7.5 (n = 4)): 0%
- % cumulative conversion (patients with PSVT; Dose Level 7.5 (n = 4)): 100%
- % conversion after Bolus 1 (patients with PSVT; Dose Level 10 (n = 5)): 90%
- % conversion after Bolus 2 (patients with PSVT; Dose Level 10 (n = 5)): 0%
- % cumulative conversion (patients with PSVT; Dose Level 10 (n = 5)): 90%
- % conversion after Bolus 1 (patients with PSVT; Dose Level 12.5 (n = 4)): 75%
- % conversion after Bolus 2 (patients with PSVT; Dose Level 12.5 (n = 4)): 25%
- % cumulative conversion (patients with PSVT; Dose Level 12.5 (n = 4)): 100%
- % conversion after Bolus 1 (patients with PSVT; Dose Level 15 (n = 10)): 80%
- % conversion after Bolus 2 (patients with PSVT; Dose Level 15 (n = 10)): 10%
- % cumulative conversion (patients with PSVT; Dose Level 15 (n = 10)): 90%
- HV prolongation (patients with PSVT; at low concentrations): without causing
- depressing sinus or AV nodal conduction after restoring SR (patients with PSVT; at low concentrations): without causing
- hypotension (patients with PSVT; at low concentrations): without causing
- termination of PSVT (patients with PSVT; at low concentrations): rapidly terminates PSVT
